Some test systems named below: Acinetobacter baumannii; Escherichia coli; Staphylococcus aureus; Staphylococcus aureus MR; Klebsiella pneumoniae; Pseudomonas aeruginosa; Escherichia coli W160-37.
Common to all, as to test: ≥ marks a high value that may be exact or a test limit, other limits are often not marked, values filed in µg/mL are converted to µM
Assay [1] deals with Shigella dysenteriae ATCC 9752.
The test system of assay [2] is Pseudomonas aeruginosa ATCC 27853.
Assay [3] concerns Staphylococcus epidermidis ATCC 12228.
Assay [4] deals with Staphylococcus aureus ATCC 6538P.
For assay [5], the system named is Klebsiella pneumoniae ATCC 10031.
The test system of assay [6] is Micrococcus luteus ATCC 10240.
The subject of assay [7] is Salmonella enterica subsp. enterica serovar Typhimurium ATCC 14028.
Assay [8] concerns Escherichia coli ATCC 25922.
Assay [9] has as its system Bacillus subtilis ATCC 6633.
Assay [10] has as its system Pseudomonas aeruginosa H1001.
The subject of assay [11] is Acinetobacter baumannii ATCC 19606.
In assay [12] the test system is Klebsiella pneumoniae ATCC 13883.
The subject of assay [13] is Staphylococcus aureus ATCC 29213.
The test system of assay [14] is Staphylococcus aureus ATCC 6538.
In assay [15] the test system is Micrococcus luteus ATCC 4698.
The test system of assay [16] is Escherichia coli DH5alpha.

In brackets after ≈: the same amount, converted by molar mass.

The MIC is the lowest concentration found to suppress growth. A lower MIC goes with inhibition by little substance. For `CC(C)C[C@H](NC(=O)[C@H](Cc1c[nH]c2ccccc12)NC(=O)CNC(=O)[C@H](CC(C)C)NC(=O)[C@@H](N)Cc1ccccc1)C(=O)N[C@@H](Cc1ccccc1)C(=O)N[C@@H](CCCCN)C(=O)N[C@@H](Cc1c[nH]c2ccccc12)C(=O)N[C@@H](C)C(=O)N[C@@H](CCCCN)C(=O)N[C@@H](CCCCN)C(N)=O` [FLGWLFKWAKK], the MIC in [1] was found to be 17.6 µM (≈ 25 µg/mL); in [2], 17.6 µM (≈ 25 µg/mL); in assay [3] it was 4.42 µM (≈ 6.3 µg/mL); in [4], 8.78 µM (≈ 12.5 µg/mL); in [5], 8.78 µM (≈ 12.5 µg/mL); in [6], 2.18 µM (≈ 3.1 µg/mL). In addition, the MIC in assay [7] worked out at 35.1 µM (≈ 50 µg/mL); in [8], 8.78 µM (≈ 12.5 µg/mL); in assay [9], 4.42 µM (≈ 6.3 µg/mL).
`CC(C)C[C@H](NC(=O)[C@@H](N)Cc1ccccc1)C(=O)N1CCC[C@H]1C(=O)N[C@@H](CCCCN)C(=O)N[C@@H](CCCCN)C(=O)N[C@@H](Cc1ccccc1)C(=O)N[C@@H](CCCN=C(N)N)C(=O)N[C@@H](Cc1c[nH]c2ccccc12)C(=O)N[C@@H](Cc1c[nH]c2ccccc12)C(=O)N[C@@H](CCCCN)C(=O)N[C@@H](Cc1ccc(O)cc1)C(=O)N[C@@H](CCCN=C(N)N)C(=O)N[C@@H](CCCCN)C(N)=O` [FLPKKFRWWKYRK] yielded an MIC in [10] of 8.5 µM (≈ 16 µg/mL).
For the compound `CC[C@H](C)[C@H](NC(=O)CN)C(=O)N[C@@H](CCCCN)C(=O)N[C@@H](CCCCN)C(=O)N[C@@H](Cc1c[nH]c2ccccc12)C(=O)N[C@H](C(=O)N[C@@H](CCCCN)C(=O)NCC(=O)N[C@H](C(=O)N[C@@H](C)C(=O)N[C@@H](CCCCN)C(=O)NCC(=O)N[C@H](C(=O)N[C@@H](C)C(=O)N[C@@H](CCCCN)C(=O)N[C@@H](CC(=O)O)C(=O)N[C@@H](CC(C)C)C(=O)N[C@@H](C)C(=O)N[C@@H](CCCCN)C(=O)N[C@@H](CCCCN)C(=O)N[C@H](C(=O)N[C@@H](CC(C)C)C(N)=O)[C@@H](C)CC)C(C)C)C(C)C)C(C)C` [GIKKWVKGVAKGVAKDLAKKIL], the minimum inhibitory concentration (MIC) was determined as 0.707 µM (≈ 1.66 µg/mL) against Acinetobacter baumannii; 0.707 µM (≈ 1.66 µg/mL) in assay [11]; 2 µM (≈ 4.7 µg/mL) in assay [2]; 0.25 µM (≈ 0.587 µg/mL) with Escherichia coli; 0.707 µM (≈ 1.66 µg/mL) in assay [12]; 1 µM (≈ 2.35 µg/mL) in the assay with Staphylococcus aureus. Besides, the MIC against Staphylococcus aureus MR is 4 µM (≈ 9.4 µg/mL); in assay [8], 0.177 µM (≈ 0.415 µg/mL); with Klebsiella pneumoniae it was 2.83 µM (≈ 6.65 µg/mL); in assay [13], 0.354 µM (≈ 0.831 µg/mL); against Pseudomonas aeruginosa, 2.83 µM (≈ 6.65 µg/mL).
As to `CC(C)C[C@H](NC(=O)[C@@H](NC(=O)[C@H](CCCCN)NC(=O)[C@H](CO)NC(=O)[C@H](CC(C)C)NC(=O)[C@H](C)NC(=O)[C@H](CCCCN)NC(=O)[C@H](Cc1ccccc1)NC(=O)[C@H](CC(C)C)NC(=O)[C@H](C)NC(=O)CNC(=O)[C@H](CC(C)C)NC(=O)[C@@H](N)Cc1ccccc1)C(C)C)C(=O)O` [FLGALFKALSKVL], the MIC in assay [14] was 9.24 µM (≈ 13 µg/mL); in [15], 5.69 µM (≈ 8 µg/mL); in [3], 11.4 µM (≈ 16 µg/mL); in [16] it was 28.4 µM (≈ 40 µg/mL).
With `CC[C@H](C)[C@H](NC(=O)[C@H](CCCN=C(N)N)NC(=O)[C@H](CCCN=C(N)N)NC(=O)[C@@H]1CCCN1C(=O)[C@@H]1CCCN1C(=O)[C@H](CCCN=C(N)N)NC(=O)[C@@H]1CCCN1C(=O)[C@H](CCCN=C(N)N)NC(=O)[C@@H]1CCCN1C(=O)[C@H](CC(C)C)NC(=O)[C@H](Cc1ccc(O)cc1)NC(=O)[C@@H]1CCCN1C(=O)[C@@H]1CCCN1C(=O)[C@H](CCCCN)NC(=O)[C@H](CCCN=C(N)N)NC(=O)[C@@H](N)C(C)C)C(=O)N[C@@H](Cc1ccc(O)cc1)C(=O)N[C@@H](CC(N)=O)C(=O)N[C@@H](CCCN=C(N)N)C(=O)NCC(=O)O` [VRKPPYLPRPRPPRRIYNRG], in [10], the MIC was determined as 0.0362 µM (≈ 0.0901 µg/mL).
The same measure, in the same setting: the figure for `CC[C@H](C)[C@H](NC(=O)[C@H](C)NC(=O)[C@@H](NC(=O)[C@H](CCCCN)NC(=O)[C@H](CCCCN)NC(=O)[C@H](Cc1cnc[nH]1)NC(=O)[C@@H](NC(=O)[C@H](CCCN=C(N)N)NC(=O)[C@@H](N)CS)C(C)C)[C@@H](C)CC)C(=O)N[C@@H](CO)C(=O)O` [CRVHKKIAIS] is ≥ 173 µM.
Turning to `CC(C)C[C@H](NC(=O)[C@H](CC(C)C)NC(=O)[C@H](CCCCN)NC(=O)[C@H](CO)NC(=O)[C@H](CC(C)C)NC(=O)[C@H](C)NC(=O)[C@H](CCCCN)NC(=O)[C@H](C)NC(=O)[C@H](CC(C)C)NC(=O)[C@H](C)NC(=O)CNC(=O)[C@H](CC(C)C)NC(=O)[C@@H](N)Cc1ccccc1)C(=O)O` [FLGALAKALSKLL], the minimum inhibitory concentration (MIC) in assay [14] was 20.8 µM (≈ 28 µg/mL); in assay [15], 11.9 µM (≈ 16 µg/mL); in [3] it was 35.7 µM (≈ 48 µg/mL); in assay [16] it was ≥ 74.4 µM.
As for `CC[C@H](C)[C@H](N)C(=O)N[C@H](C(=O)N[C@@H](CO)C(=O)N[C@H](C(=O)N[C@H](C(=O)NCC(=O)N[C@@H](CC(=O)O)C(=O)N[C@@H](CC(C)C)C(=O)N[C@H](C(=O)N[C@@H](CCCCN)C(=O)N[C@@H](Cc1c[nH]c2ccccc12)C(=O)N[C@H](C(=O)N[C@H](C(=O)N[C@@H](CCCCN)C(=O)N[C@H](C(=O)N[C@H](C(=O)O)C(C)C)[C@@H](C)O)[C@@H](C)CC)[C@@H](C)CC)C(C)C)[C@@H](C)CC)[C@@H](C)O)[C@@H](C)CC` [IISTIGDLVKWIIKTV], in the assay with Escherichia coli W160-37, the MIC was ≥ 35 µM.
Take `CC[C@H](C)[C@H](N)C(=O)N[C@H](C(=O)N[C@@H](CO)C(=O)N[C@H](C(=O)N[C@H](C(=O)NCC(=O)N[C@@H](CCCCN)C(=O)N[C@@H](CC(C)C)C(=O)N[C@H](C(=O)N[C@@H](CCCCN)C(=O)N[C@@H](Cc1c[nH]c2ccccc12)C(=O)N[C@H](C(=O)N[C@H](C(=O)N[C@@H](CCCCN)C(=O)N[C@H](C(=O)N[C@H](C(=O)O)C(C)C)[C@@H](C)O)[C@@H](C)CC)[C@@H](C)CC)C(C)C)[C@@H](C)CC)[C@@H](C)O)[C@@H](C)CC` [IISTIGKLVKWIIKTV]: the MIC against Escherichia coli W160-37 was determined as 3 µM (≈ 5.44 µg/mL); against Staphylococcus aureus, 3.46 µM (≈ 6.28 µg/mL).
`C[C@@H](O)[C@H](NC(=O)[C@@H]1CSSC[C@H](NC(=O)[C@H](Cc2ccc(O)cc2)NC(=O)CNC(=O)CNC(=O)[C@@H](N)CO)C(=O)NCC(=O)NCC(=O)N[C@@H](Cc2c[nH]c3ccccc23)C(=O)N[C@@H](CCCCN)C(=O)N[C@@H](CCCN=C(N)N)C(=O)N[C@@H](CCCCN)C(=O)N[C@@H](CCCN=C(N)N)C(=O)N1)C(=O)N[C@@H](CO)C(=O)N[C@@H](Cc1ccc(O)cc1)C(=O)N[C@@H](CCCN=C(N)N)C(=O)N[C@@H](CO)C(=O)NCC(=O)O` [SGGYCGGWKRKRCTSYRSG] came in with an MIC in assay [15] of 12 µM (≈ 25.3 µg/mL).
Compound `CC[C@H](C)[C@H](NC(=O)[C@H](CCSC)NC(=O)[C@H](Cc1c[nH]c2ccccc12)NC(=O)[C@H](Cc1c[nH]c2ccccc12)NC(=O)[C@H](CC(C)C)NC(=O)[C@@H](N)CCCCN)C(=O)N[C@@H](CCCN=C(N)N)C(=O)N[C@@H](CCCN=C(N)N)C(=O)N[C@@H](Cc1c[nH]c2ccccc12)C(=O)O` [KLWWMIRRW] yielded an MIC in [10] of 5.82 µM (≈ 8 µg/mL).
`CC(C)C[C@@H]1NC(=O)[C@H](CCCN=C(N)N)NC(=O)[C@H](Cc2cnc[nH]2)NC(=O)[C@H](Cc2c[nH]c3ccccc23)NC(=O)CNC(=O)CNC(=O)[C@@H](NC(=O)[C@H](Cc2ccc(O)cc2)NC(=O)CNC(=O)CNC(=O)[C@@H](N)CO)CSSC[C@@H](C(=O)O)NC(=O)[C@H](CCCN=C(N)N)NC1=O` [SGGYCGGWHRLRC] showed an MIC in [15] of 17 µM (≈ 24.6 µg/mL).
With `CC[C@H](C)[C@H](NC(=O)[C@H](CCCCN)NC(=O)[C@H](CCCN=C(N)N)NC(=O)[C@@H]1CCCN1C(=O)[C@@H](NC(=O)[C@H](CC(C)C)NC(=O)[C@H](CC(C)C)NC(=O)[C@H](CC(C)C)NC(=O)[C@@H](N)Cc1ccccc1)[C@@H](C)CC)C(=O)N[C@H](C(=O)N[C@H](C(=O)N[C@@H](C)C(=O)N[C@@H](CC(C)C)C(N)=O)[C@@H](C)O)C(C)C` [FLLLIPRKIVTAL], the minimal inhibitory concentration (MIC) in the assay with Escherichia coli W160-37 is ≥ 93.5 µM.
`CC[C@H](C)[C@H](NC(=O)[C@H](C)N)C(=O)N[C@@H](CCCCN)C(=O)N[C@@H](CC(C)C)C(=O)N[C@@H](CC(C)C)C(=O)N[C@@H](CS)C(=O)N[C@@H](CCCN=C(N)N)C(=O)N[C@H](C(=O)N[C@@H](Cc1cnc[nH]1)C(=O)N[C@@H](CCCCN)C(=O)O)C(C)C` [AIKLLCRVHK]: the MIC in assay [10] is ≥ 42.4 µM.

These data come from DBAASP.
